Tested on: P388
Assay: In vivo antitumor activity against mouse P388 cells at 40 mg/kg
Type: functional

Compound | T/C [%]
COc1cc([C@@H]2c3cc4c(cc3C[C@H]3COC(=O)[C@@H]32)OCO4)cc(OC)c1OC [DESOXYPODOPHYLLOTOXIN] | 144
COc1cc([C@@H]2c3cc4c(cc3[C@H](O)[C@H]3COC(=O)[C@H]23)OCO4)cc(OC)c1OC [PODOFILOX] | 144
O=C1OC[C@@H]2Cc3cc4c(cc3[C@@H](c3ccc5c(c3)OCO5)[C@@H]12)OCO4 [POLYGAMAIN] | 144
COc1ccc2c(c1OC)[C@@H](c1ccc3c(c1)OCO3)[C@H]1C(=O)OC[C@@H]1C2 [POLYGAMATIN] | 144
COc1ccc2c(c1OC)[C@@H](c1ccc3c(c1)OCO3)C1=C(COC1=O)C2 | 144
COc1cc([C@@H]2c3cc4c(cc3[C@H](O)[C@H]3COC(=O)[C@H]23)OCO4)cc(OC)c1O | 144

— ChEMBL document CHEMBL1158648, “The Lignans of Polygala polygama (Polygalaceae): Deoxypodophyllotoxin and Three New Lignan Lactones” (1979)
